Results as given in US11524951B2, “2-(2,4,5-substituted-anilino)pyrimidine compounds” (AstraZeneca AB, priority 2011, dated 2022).

Experiments:
Format in all cases: cell-based
Wild-type EGFR = biological target: T1, Wild-type EGFR (Homo sapiens, UniProt P00533); assay: Wild-type EGFR cellular phosphorylation assay; conditions: LoVo human colon cells; endogenous p-EGFR in cell lysates by ELISA; 2 h with compound, then stimulated 100 ng/ml for 10 minutes; read-out: Assay 3 (IC50)
T1 construct: Assays to measure cellular phosphorylation of endogenous p-EGFR in cell lysates; endogenous in cells; host or cells: LoVo (human colon cell line)

Exon19 deletion EGFR = biological target: T2, Exon19 deletion EGFR (Homo sapiens, UniProt P00533, DEL746-750); assay: Exon19 deletion EGFR (activating single mutant) cellular phosphorylation assay; conditions: PC9 human lung cells (Exon 19 deletion EGFR); endogenous p-EGFR in cell lysates by ELISA; 2 h with compound; read-out: Assay 1 (IC50)
T2 construct: Assays to measure cellular phosphorylation of endogenous p-EGFR in cell lysates; endogenous in cells; host or cells: PC9 (human lung cell line)

L858R/T790M EGFR = biological target: T3, L858R/T790M EGFR (Homo sapiens, UniProt P00533, L858R/T790M); assay: L858R/T790M EGFR (double mutant) cellular phosphorylation assay; conditions: NCI-H1975 human lung cells; endogenous p-EGFR in cell lysates by ELISA; 2 h with compound
T3 construct: Assays to measure cellular phosphorylation of endogenous p-EGFR in cell lysates; endogenous in cells; host or cells: NCI-H1975 (human lung cell line)
T3 sequence (P00533 25-1210 T790M/L858R): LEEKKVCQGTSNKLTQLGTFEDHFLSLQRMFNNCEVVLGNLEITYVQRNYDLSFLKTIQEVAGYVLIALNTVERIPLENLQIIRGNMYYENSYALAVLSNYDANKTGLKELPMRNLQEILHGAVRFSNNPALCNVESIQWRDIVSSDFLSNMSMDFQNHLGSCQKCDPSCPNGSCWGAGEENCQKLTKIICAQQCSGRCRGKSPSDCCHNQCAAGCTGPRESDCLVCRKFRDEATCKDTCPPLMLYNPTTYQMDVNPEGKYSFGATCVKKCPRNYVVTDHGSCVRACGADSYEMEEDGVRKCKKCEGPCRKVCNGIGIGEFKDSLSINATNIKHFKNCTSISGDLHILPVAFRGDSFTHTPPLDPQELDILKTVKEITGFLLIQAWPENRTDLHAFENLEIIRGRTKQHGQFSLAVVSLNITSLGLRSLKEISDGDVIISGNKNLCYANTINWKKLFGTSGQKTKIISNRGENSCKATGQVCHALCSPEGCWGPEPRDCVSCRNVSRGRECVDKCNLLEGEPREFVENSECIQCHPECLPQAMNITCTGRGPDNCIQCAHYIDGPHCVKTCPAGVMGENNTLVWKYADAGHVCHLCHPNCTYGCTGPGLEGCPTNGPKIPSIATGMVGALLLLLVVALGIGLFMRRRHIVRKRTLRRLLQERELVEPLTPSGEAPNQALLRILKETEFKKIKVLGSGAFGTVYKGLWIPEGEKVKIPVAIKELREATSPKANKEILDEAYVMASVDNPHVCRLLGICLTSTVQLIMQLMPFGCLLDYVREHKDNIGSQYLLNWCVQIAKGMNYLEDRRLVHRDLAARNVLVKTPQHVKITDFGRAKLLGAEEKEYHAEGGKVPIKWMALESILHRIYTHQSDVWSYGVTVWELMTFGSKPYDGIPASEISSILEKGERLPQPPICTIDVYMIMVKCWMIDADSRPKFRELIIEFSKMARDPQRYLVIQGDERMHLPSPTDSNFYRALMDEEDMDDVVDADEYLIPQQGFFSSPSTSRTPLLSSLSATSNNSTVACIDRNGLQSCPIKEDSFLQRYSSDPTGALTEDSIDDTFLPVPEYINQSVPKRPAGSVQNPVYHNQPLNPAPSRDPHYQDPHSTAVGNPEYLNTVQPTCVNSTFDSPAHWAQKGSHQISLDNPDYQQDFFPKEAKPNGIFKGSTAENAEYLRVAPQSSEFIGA

T1 sequence (P00533 25-1210): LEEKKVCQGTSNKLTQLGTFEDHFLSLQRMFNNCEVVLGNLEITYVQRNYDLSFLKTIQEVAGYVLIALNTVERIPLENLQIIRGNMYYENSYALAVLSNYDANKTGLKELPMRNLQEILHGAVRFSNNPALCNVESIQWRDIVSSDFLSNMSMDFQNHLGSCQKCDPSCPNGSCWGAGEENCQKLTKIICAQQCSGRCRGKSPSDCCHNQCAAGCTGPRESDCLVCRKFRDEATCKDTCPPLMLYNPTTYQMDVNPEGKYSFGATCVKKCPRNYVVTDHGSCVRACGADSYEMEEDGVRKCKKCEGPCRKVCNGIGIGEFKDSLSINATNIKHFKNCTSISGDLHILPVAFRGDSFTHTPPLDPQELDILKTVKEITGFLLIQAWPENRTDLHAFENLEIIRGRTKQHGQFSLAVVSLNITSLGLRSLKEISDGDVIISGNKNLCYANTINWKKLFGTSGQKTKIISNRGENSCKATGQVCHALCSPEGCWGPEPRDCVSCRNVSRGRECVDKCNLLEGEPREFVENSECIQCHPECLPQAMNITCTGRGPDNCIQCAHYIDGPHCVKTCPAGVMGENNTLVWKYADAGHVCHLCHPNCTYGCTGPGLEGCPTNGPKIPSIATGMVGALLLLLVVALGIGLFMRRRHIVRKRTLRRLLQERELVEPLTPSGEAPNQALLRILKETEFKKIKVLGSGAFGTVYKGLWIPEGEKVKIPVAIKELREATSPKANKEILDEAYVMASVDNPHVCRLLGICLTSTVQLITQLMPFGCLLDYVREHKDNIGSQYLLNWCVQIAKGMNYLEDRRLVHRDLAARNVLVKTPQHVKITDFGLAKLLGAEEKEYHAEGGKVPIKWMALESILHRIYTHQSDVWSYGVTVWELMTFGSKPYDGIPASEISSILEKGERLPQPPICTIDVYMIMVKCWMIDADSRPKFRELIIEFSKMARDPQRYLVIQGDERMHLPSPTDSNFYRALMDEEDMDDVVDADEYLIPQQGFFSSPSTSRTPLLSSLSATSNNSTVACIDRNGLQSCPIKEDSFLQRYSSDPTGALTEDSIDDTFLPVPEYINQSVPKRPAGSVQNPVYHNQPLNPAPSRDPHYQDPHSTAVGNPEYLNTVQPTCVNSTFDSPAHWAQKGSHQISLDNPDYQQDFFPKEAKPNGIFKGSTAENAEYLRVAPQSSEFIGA
T2 sequence (P00533 with tags, fused parts or gaps DEL746-750): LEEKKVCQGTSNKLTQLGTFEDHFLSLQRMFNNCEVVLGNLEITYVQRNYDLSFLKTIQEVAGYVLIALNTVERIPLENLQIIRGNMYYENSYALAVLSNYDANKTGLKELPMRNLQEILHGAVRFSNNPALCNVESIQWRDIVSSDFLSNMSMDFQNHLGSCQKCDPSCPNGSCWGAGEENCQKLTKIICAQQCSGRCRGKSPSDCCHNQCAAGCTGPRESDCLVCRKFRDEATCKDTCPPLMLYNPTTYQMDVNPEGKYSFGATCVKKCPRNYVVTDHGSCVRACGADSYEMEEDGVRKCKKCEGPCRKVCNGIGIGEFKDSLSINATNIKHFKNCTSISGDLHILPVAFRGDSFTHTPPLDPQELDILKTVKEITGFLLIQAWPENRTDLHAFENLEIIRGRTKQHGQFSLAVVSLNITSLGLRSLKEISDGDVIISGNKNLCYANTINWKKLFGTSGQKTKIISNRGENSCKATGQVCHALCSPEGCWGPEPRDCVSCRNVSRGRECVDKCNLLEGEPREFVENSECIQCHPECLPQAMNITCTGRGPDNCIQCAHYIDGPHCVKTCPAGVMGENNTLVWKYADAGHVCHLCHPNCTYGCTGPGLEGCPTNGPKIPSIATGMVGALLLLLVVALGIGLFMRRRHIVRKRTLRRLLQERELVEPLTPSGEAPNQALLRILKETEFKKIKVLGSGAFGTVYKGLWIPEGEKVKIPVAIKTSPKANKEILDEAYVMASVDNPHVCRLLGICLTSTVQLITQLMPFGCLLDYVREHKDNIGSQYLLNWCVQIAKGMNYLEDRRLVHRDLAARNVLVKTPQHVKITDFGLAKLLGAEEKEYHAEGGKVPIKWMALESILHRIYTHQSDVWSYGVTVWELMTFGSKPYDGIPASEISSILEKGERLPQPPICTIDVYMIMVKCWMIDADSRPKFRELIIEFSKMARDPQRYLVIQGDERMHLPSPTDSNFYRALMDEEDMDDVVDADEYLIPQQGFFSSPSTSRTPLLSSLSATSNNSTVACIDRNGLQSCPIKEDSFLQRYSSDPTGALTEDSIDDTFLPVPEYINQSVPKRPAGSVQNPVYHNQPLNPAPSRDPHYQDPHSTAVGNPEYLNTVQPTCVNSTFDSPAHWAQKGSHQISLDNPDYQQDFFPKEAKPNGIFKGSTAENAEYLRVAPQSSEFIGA

| IC50 (Wild-type EGFR) [nM] | IC50 (Exon19 deletion EGFR) [nM] | IC50 (L858R/T790M EGFR) [nM] | SMILES |
| --- | --- | --- | --- |
| 3640 | 33.3 | 25.6 | C=CC(=O)Nc1cc(Nc2nccc(-c3cnn4c3CCCC4)n2)c(OC)cc1N1CC[C@@H](N(C)C)C1 [Example 44, N-(2-{(3R)-3-Dimethylaminopyrrolidin-1-yl}-4-methoxy-5-{[4-(4,5,6,7-tetrahydropyrazolo[1,5-a]pyridin-3-yl)pyrimidin-2-yl]amino}phenyl)prop-2-enamide] |
| 7400 | 110 | 41 | C=CC(=O)Nc1cc(Nc2nccc(-c3cnn4c3CCCC4)n2)c(OC)cc1C1=CCN(C)CC1 [Example 45, N-(4-Methoxy-2-{1-methyl-3,6-dihydro-2H-pyridin-4-yl}-5-{[4-(4,5,6,7-tetrahydropyrazolo[1,5-a]pyridin-3-yl)pyrimidin-2-yl]amino}phenyl)prop-2-enamide] |
| 7090 | 129 | 92.9 | C=CC(=O)Nc1cc(Nc2nccc(-c3cnn4c3CCCC4)n2)c(OC)cc1N1CC(N(C)C)C1 [Example 46, N-(2-{3-Dimethylaminoazetidin-1-yl}-4-methoxy-5-{[4-(4,5,6,7-tetrahydropyrazolo[1,5-a]pyridin-3-yl)pyrimidin-2-yl]amino}phenyl)prop-2-enamide] |
| 15400 | 194 | 119 | C=CC(=O)Nc1cc(Nc2nccc(-c3cnn4c3CCCC4)n2)c(OC)cc1N1CC2(CCCN2C)C1 [Example 47, N-(4-Methoxy-2-{8-methyl-2,8-diazaspiro[3.4]octan-2-yl}-5-{[4-(4,5,6,7-tetrahydropyrazolo[1,5-a]pyridin-3-yl)pyrimidin-2-yl]amino}phenyl)prop-2-enamide] |
| 1580 | 39.9 | 31 | C=CC(=O)Nc1cc(Nc2nccc(-c3cn(C)c4ccccc34)n2)c(OC)cc1C1=CCN(C)CC1 [Example 48, N-(4-Methoxy-2-{1-methyl-3,6-dihydro-2H-pyridin-4-yl}-5-{[4-(1-methylindol-3-yl)pyrimidin-2-yl]amino}phenyl)prop-2-enamide] |
| 3090 | 74.2 | 51 | C=CC(=O)Nc1cc(Nc2nccc(-c3cn(C)c4ccccc34)n2)c(OC)cc1N1CC2(CCCN2C)C1 [Example 49, N-(4-Methoxy-2-{8-methyl-2,8-diazaspiro[3.4]octan-2-yl}-5-{[4-(1-methylindol-3-yl)pyrimidin-2-yl]amino}phenyl)prop-2-enamide] |
| 462 | 13 | 7.71 | C=CC(=O)Nc1cc(Nc2nccc(-c3cnn4ccccc34)n2)c(OC)cc1C1=CCN(C)CC1 [Example 51, N-{4-Methoxy-2-[1-methyl-3,6-dihydro-2H-pyridin-4-yl]-5-[(4-pyrazolo[1,5-a]pyridin-3-ylpyrimidin-2-yl)amino]phenyl}prop-2-enamide] |
| 1400 | 26 | 15 | C=CC(=O)Nc1cc(Nc2nccc(-c3cnn4ccccc34)n2)c(OC)cc1N1CC[C@@H](N(C)C)C1 [Example 52, N-{2-[(3R)-3-Dimethylaminopyrrolidin-1-yl]-4-methoxy-5-[(4-pyrazolo[1,5-a]pyridin-3-ylpyrimidin-2-yl)amino]phenyl}prop-2-enamide] |
| 2640 | 35.4 | 28.2 | C=CC(=O)Nc1cc(Nc2nccc(-c3cnn4ccccc34)n2)c(OC)cc1N1CC(N(C)C)C1 [Example 53, N-{2-(3-Dimethylaminoazetidin-1-yl)-4-methoxy-5-[(4-pyrazolo[1,5-a]pyridin-3-ylpyrimidin-2-yl)amino]phenyl}prop-2-enamide] |
| 183 | 3.22 | 2.8 | C=CC(=O)Nc1cc(Nc2nccc(-c3cnn4ccccc34)n2)c(OC)cc1N(C)CCN(C)C [Example 54, N-{2-[2-Dimethylaminoethyl-methylamino]-4-methoxy-5-[(4-pyrazolo[1,5-a]pyridin-3-ylpyrimidin-2-yl)amino]phenyl}prop-2-enamide] |
| 507 | 6.43 | 2.86 | C=CC(=O)Nc1cc(Nc2nccc(-c3cnn4ccccc34)n2)c(OC)cc1N1CC[C@@H]2CN(C)C[C@@H]21 [Example 55, N-[2-[(3aR,6aR)-5-Methyl-2,3,3a,4,6,6a-hexahydropyrrolo[3,4-b]pyrrol-1-yl]-4-methoxy-5-[(4-pyrazolo[1,5-a]pyridin-3-ylpyrimidin-2-yl)amino]phenyl]prop-2-enamide] |
| 3500 | 44.3 | 29.2 | C=CC(=O)Nc1cc(Nc2nccc(-c3cnn4ccccc34)n2)c(OC)cc1N1CC2(CCCN2C)C1 [Example 56, N-{4-Methoxy-2-[8-methyl-2,8-diazaspiro[3.4]octan-2-yl]-5-[(4-pyrazolo[1,5-a]pyridin-3-ylpyrimidin-2-yl)amino]phenyl}prop-2-enamide] |
| 89.3 | 6.45 | 14.5 | C=CC(=O)Nc1cc(Nc2nccc(-c3c[nH]c4ccccc34)n2)c(OC)cc1N1CC[C@@H](N(C)C)C1 [Example 57, N-(2-{(3R)-3-Dimethylaminopyrrolidin-1-yl}-5-{[4-(1H-indol-3-yl)pyrimidin-2-yl]amino}-4-methoxyphenyl)prop-2-enamide] |
| 179 | 7.08 | 16.8 | C=CC(=O)Nc1cc(Nc2nccc(-c3c[nH]c4ccccc34)n2)c(OC)cc1N1CC(N(C)C)C1 [Example 58, N-(2-[3-Dimethylaminoazetidin-1-yl]-5-{[4-(1H-indol-3-yl)pyrimidin-2-yl]amino}-4-methoxyphenyl)prop-2-enamide] |
| 28.2 | 2.27 | 3.02 | C=CC(=O)Nc1cc(Nc2nccc(-c3c[nH]c4ccccc34)n2)c(OC)cc1N(C)CCN(C)C [Example 59, N-(2-[2-Dimethylaminoethyl-methylamino]-5-{[4-(1H-indol-3-yl)pyrimidin-2-yl]amino}-4-methoxyphenyl)prop-2-enamide] |

| SMILES | IC50 (Wild-type EGFR) [nM] | IC50 (Exon19 deletion EGFR) [nM] | IC50 (L858R/T790M EGFR) [nM] |
| --- | --- | --- | --- |
| C=CC(=O)Nc1cc(Nc2nccc(-c3cn(C)c4ccccc34)n2)c(OC)cc1N(C)CCNC [Example 60, N-(4-Methoxy-5-{[4-(1-methylindol-3-yl)pyrimidin-2-yl]amino}-2-[methyl-(2-methylaminoethyl)amino]phenyl)prop-2-enamide] | 624 | 14.6 | 48.9 |
